Test results from PMC6476928 (Frontiers in Pharmacology, 2019).
Where a chain is given by its changes, count along the chain named.

Key:
Kv4.2 = target: T1, Kv4.2 (Homo sapiens, UniProt Q9NZV8); test: Whole-cell patch clamp of WT Kv4.2 co-expressed with KChIP2 in HEK293T cells; format: cell-based; parameters: expressed in transfected cells; host or cells: HEK293T
T1 sequence (Q9NZV8 1-630): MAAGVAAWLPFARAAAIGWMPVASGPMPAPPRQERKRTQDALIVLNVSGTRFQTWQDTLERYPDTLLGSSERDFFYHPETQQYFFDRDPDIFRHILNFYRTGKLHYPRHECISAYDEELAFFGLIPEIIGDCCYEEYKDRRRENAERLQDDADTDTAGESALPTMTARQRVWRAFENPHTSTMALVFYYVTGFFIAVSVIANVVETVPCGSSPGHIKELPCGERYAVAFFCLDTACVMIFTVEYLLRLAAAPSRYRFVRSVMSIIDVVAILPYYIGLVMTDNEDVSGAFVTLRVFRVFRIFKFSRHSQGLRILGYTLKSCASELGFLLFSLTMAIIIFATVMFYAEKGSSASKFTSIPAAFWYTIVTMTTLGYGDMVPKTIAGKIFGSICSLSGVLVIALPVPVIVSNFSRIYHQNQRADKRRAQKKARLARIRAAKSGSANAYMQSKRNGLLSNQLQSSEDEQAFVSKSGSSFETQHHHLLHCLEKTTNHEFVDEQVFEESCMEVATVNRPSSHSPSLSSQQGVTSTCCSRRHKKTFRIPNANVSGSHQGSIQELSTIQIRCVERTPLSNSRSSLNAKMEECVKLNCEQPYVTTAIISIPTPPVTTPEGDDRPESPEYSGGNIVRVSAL
T1 sequence (Q9NS61 1-270 partner): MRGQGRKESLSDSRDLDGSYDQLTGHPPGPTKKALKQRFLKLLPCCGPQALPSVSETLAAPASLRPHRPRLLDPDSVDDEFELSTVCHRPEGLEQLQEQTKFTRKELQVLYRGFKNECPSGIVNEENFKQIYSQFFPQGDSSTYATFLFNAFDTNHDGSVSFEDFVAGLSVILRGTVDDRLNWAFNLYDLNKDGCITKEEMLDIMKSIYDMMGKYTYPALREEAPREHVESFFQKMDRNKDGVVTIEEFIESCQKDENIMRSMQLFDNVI
Experimental: (§2) Human embryonic kidney cell line (HEK293T) was obtained from Shanghai Institute of Cell Biology, Chinese Academy of Sciences (Shanghai, China) and maintained with 5% CO2 at 37°C in DMEM supplemented with 10% heat-inactivated fetal calf and serum (FBS), penicillin (100 U/ml), and streptomycin (100 μg/ml). The WT/mutant Kv4.2 plasmids were transiently transfected into HEK293T by Lipofectamine^TM 2000 Reagent (Invitrogen), and the KChIP2 subunits were co-transfected with Kv4.2.
(§3) The extracellular buffer and pipette solution for AP, Ito, and Kv4.2 were used as follows.
Kv4.2 current, The pipette solution contained (mM) 140 KF, 5 ATP-2Na, 1 EGTA, and 10 HEPEs (pH = 7.4). […] The Kv4.2 currents were elicited by a 300-ms depolarizing voltage of 10 mV from a holding potential of −80 mV. The steady-state activation of Kv4.2 was measured with the holding potential −80 mV and applied from −80 mV to 70 mV (10-mV increments). Steady-state inactivation of Kv4.2 channel measured with a series of a 300-ms depolarizing test potential of 10 mV followed a 1000-ms prepulse at potentials ranging from −120 to +70 mV with a 5-mV increment.
Data were analyzed using the clampfit (Axon) and Origin 9 software programs. All data points are shown as mean SEM. The significance was estimated using unpaired two-tailed t-tests, and a P < 0.05 was considered statistically significant. n stands for the number of the separate experimental cells. […] The steady-state activation relationship was measured using Boltzmann function (f(V) = 1/{1 + exp[−(V−V1/2)/k]}^4). Steady-state inactivation was measured using the Boltzmann function f(V) = 1/{1 + exp[−(V − V1/2)/k]}.

Kv4.2 L277A = test: Patch clamp of Kv4.2 mutant L277A in HEK293T cells; format: cell-based
Excerpt: (§1) All data points are shown as mean SEM.

kv2.1 = conditions: 5µM, X. laevis oocytes; cited from earlier work
Excerpt: Supplement Data_Sheet_1.docx, table 1: Supplementary Table 1.Activity of spider toxins on Kv2 and Kv4 channel subtypes Activities of spider toxins against different subtypes of Kv2 and Kv4 potassium channels are reported as IC50 (nanomolar) or as percentage of current inhibition at a single dose (nanomolar). Affinity (IC50) measurements | column: kv2.1 || Animal toxins target ion channels, and are thus valuable resources with potential therapeutic applications. The Kv4 subfamily from scorpion ([Maffie et al., 2013]; [Xie et al., 2014]) and spider venom ([Escoubas et al., 2002]; [Ebbinghaus et al., 2004]; [Yuan et al., 2007], [2012]; [DeSimone et al., 2009]) has a rich toxin pharmacology. HaTx, originally isolated from venom of the Chilean rose tarantula (Grammostola spatulata), inhibits Kv4.2 channels effectively, with similar affinity for Kv2.1 ([Swartz and MacKinnon, 1995]; [Swartz, 2007]). Other Kv4 channel inhibitors, Stromatoxin (ScTx1) fr ...

[1] = system: Kv4.2 S1–S2 linker mutants; test: Patch clamp of Kv4.2 S1–S2 linker alanine mutants in HEK293T cells; format: cell-based; conditions: all S1–S2 linker mutants, N = 5
Excerpt: as §1

[2] = system: action potential of NRVMs; test: Action potential recording in neonatal rat ventricular myocytes; format: cell-based; conditions: 100 nM JZTX-V
Excerpt: Neonatal rat ventricular myocytes cells were obtained from ventricles of neonatal Sprague–Dawley rats as previously reported ([Sung et al., 2012]; [Yan et al., 2018]). SD rats (Hunan SJA Laboratory Animal Co., Ltd., Changsha, China) were used according to the guidelines of the National Institutes of Health for Care and Use of Laboratory Animals. The experiments were approved by the Animal Care and Use Committee of Hunan Normal University.
The APs, Pipette solution contained (mM) 120 KCl, 1 MgCl2, 10 EGTA, 10 Hepes, and 3 MgATP (pH = 7.4). The extracellular buffer contained (mM) 140 NaCl, 5.4 KCl, 1.3 CaCl2, 0.5 MgCl2, 5 Hepes, and 5.5 glucose (pH = 7.4).
as §1

Kv4.2 I275A = test: Patch clamp of Kv4.2 mutant I275A in HEK293T cells; format: cell-based
Excerpt: as §1

[3] = system: A-type potassium channels in DRG cells; conditions: ref Zeng et al., 2008; read-out: IC50, block of A-type potassium channels in DRG cells; cited from earlier work
Kv4.2 V290A = target: T2, Kv4.2 V290A (Homo sapiens, UniProt Q9NZV8, V290A); test: Patch clamp of Kv4.2 mutant V290A in HEK293T cells; format: cell-based
T2 construct: expressed in transfected cells; host or cells: HEK293T
T2 sequence (Q9NZV8 1-630 V290A): T1 sequence (Q9NZV8 1-630) with V290A
T2 sequence (Q9NS61 1-270 partner): T1 sequence (Q9NS61 1-270 partner)
Experimental: as §2, §3
Kv4.2 current, The pipette solution contained (mM) 140 KF, 5 ATP-2Na, 1 EGTA, and 10 HEPEs (pH = 7.4). […] The steady-state activation of Kv4.2 was measured with the holding potential −80 mV and applied from −80 mV to 70 mV (10-mV increments). Steady-state inactivation of Kv4.2 channel measured with a series of a 300-ms depolarizing test potential of 10 mV followed a 1000-ms prepulse at potentials ranging from −120 to +70 mV with a 5-mV increment.
Data were analyzed using the clampfit (Axon) and Origin 9 software programs. […] The steady-state activation relationship was measured using Boltzmann function (f(V) = 1/{1 + exp[−(V−V1/2)/k]}^4). Steady-state inactivation was measured using the Boltzmann function f(V) = 1/{1 + exp[−(V − V1/2)/k]}.

SMILES: CC[C@H](C)[C@H](NC(=O)[C@@H](NC(=O)[C@H](CCCCN)NC(=O)[C@H](CCCNC(=N)N)NC(=O)[C@@H]1CSSC[C@@H]2NC(=O)[C@H](C)NC(=O)[C@H](CCCNC(=N)N)NC(=O)[C@H](CCCCN)NC(=O)[C@H](CO)NC(=O)[C@H](CC(=O)O)NC(=O)[C@@H]3CSSC[C@H](NC(=O)[C@H](CCCNC(=N)N)NC(=O)[C@H](CC(C)C)NC(=O)CNC(=O)[C@H](CCC(=O)O)NC(=O)[C@H](CSSC[C@H](NC(=O)[C@@H](N)Cc4ccc(O)cc4)C(=O)N[C@@H](CCC(N)=O)C(=O)N[C@@H](CCCCN)C(=O)N[C@@H](Cc4c[nH]c5ccccc45)C(=O)N[C@@H](CCSC)C(=O)N[C@@H](Cc4c[nH]c5ccccc45)C(=O)N[C@@H]([C@@H](C)O)C(=O)N3)NC2=O)C(=O)N[C@@H](CCCCN)C(=O)N[C@@H](CC(C)C)C(=O)N[C@@H](Cc2c[nH]c3ccccc23)C(=O)N1)[C@@H](C)CC)C(=O)O [JZTX-V, Jingzhaotoxin-V]
- inhibition at 0.1 µM (Kv4.2; HEK-293T, read-out: inhibition of Kv4.2 potassium current): > 90%
- V1/2 of steady-state activation (G–V curve) (Kv4.2; in presence of 10 nM JZTX-V, +20 mV in absence): +30 mV
- half-maximal inactivation potential (Vin1/2) (Kv4.2; in presence of 10 nM JZTX-V, −44.5 mV without): −50.0 mV
- increase of affinity for JZTX-V vs WT Kv4.2 (Kv4.2 L277A): ~20 fold
- percentage of current inhibition kv2.1 (kv2.1): 35% (5µM) O
- JZTX-V binding affinity for Kv4.2 S1–S2 linker alanine mutants [1]: only a slight decrease
- APD10 compared with vehicle-treated group ([2]; 1 Hz, N = 5): 123.53 ± 4.23%
- APD50 compared with vehicle-treated group ([2]; 1 Hz, N = 5): 124.34 ± 3.17%
- APD90 compared with vehicle-treated group ([2]; 1 Hz, N = 5): 126.26 ± 3.23%
- effect on APD10–50 ([2]; N = 5): did not affect
- effect on APD50–90 ([2]; N = 5): did not affect
- APD10 after treatment ([2]; control 12 ± 1 ms): 15 ± 1.7 ms
- APD50 after treatment ([2]; control 88 ± 6 ms): 109 ± 8 ms
- APD90 after treatment ([2]; control 245 ± 7 ms): 309 ± 10 ms
- increase of affinity for JZTX-V vs WT Kv4.2 (Kv4.2 I275A): ~10 fold
- IC50 [3]: 52.3 nM
- reduction of sensitivity to the toxin vs WT Kv4.2 (Kv4.2 V290A): ~12 fold
